Test results published in publication PMC9436924, “A gene cluster in Ginkgo biloba encodes unique multifunctional cytochrome P450s that initiate ginkgolide biosynthesis” (Nature Communications, 2022).

How the values were obtained:
GbLPS = target: T1, GbLPS (Ginkgo biloba, UniProt Q947C4); experiment: expression in tobacco leaves, GC-MS of products; type: cell-based; conditions: substrate made in situ with CfDXS and CfGGPPS
T1 construct: gene LPS; transiently expressed in Nicotiana benthamiana leaves, plastidial; (in yeast a truncated, codon-optimised MBP fusion was used)
T1 sequence (Q947C4 60-873): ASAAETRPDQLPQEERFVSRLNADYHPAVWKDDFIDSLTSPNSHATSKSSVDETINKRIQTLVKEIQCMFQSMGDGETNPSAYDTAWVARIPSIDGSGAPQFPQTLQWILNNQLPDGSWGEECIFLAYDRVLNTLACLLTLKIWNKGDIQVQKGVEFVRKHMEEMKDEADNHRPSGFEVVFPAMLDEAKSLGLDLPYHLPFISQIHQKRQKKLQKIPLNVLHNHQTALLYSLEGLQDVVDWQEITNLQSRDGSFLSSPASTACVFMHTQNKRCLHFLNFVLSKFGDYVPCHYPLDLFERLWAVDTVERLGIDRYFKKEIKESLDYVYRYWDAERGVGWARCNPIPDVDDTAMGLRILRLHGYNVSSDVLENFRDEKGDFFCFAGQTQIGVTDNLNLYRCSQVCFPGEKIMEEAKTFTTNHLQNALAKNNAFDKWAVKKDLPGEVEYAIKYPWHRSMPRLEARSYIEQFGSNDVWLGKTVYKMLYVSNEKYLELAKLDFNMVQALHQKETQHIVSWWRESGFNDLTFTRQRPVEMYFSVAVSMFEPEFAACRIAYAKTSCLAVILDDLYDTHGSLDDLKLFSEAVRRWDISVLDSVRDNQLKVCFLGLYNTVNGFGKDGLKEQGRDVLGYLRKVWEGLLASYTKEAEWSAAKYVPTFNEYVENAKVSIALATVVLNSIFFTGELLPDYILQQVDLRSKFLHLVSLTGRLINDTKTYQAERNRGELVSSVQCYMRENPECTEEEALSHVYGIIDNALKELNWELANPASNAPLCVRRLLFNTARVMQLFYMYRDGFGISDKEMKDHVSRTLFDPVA

GbCYP720B31 = target: T2, GbCYP720B31 (Ginkgo biloba, UniProt Z9PDJ7KIF4); experiment: pathway co-expression in tobacco and yeast, LC-HRMS, NMR of product glucosides; type: cell-based; conditions: proposed substrate made in situ by upstream enzymes, free form not detected
T2 construct: G. biloba cDNA, gene on chromosome 4; expressed in Nicotiana benthamiana and Saccharomyces cerevisiae; GenBank numbers ON759313-ON759329 printed only as a collective set
T2 sequence (Z9PDJ7KIF4 1-483): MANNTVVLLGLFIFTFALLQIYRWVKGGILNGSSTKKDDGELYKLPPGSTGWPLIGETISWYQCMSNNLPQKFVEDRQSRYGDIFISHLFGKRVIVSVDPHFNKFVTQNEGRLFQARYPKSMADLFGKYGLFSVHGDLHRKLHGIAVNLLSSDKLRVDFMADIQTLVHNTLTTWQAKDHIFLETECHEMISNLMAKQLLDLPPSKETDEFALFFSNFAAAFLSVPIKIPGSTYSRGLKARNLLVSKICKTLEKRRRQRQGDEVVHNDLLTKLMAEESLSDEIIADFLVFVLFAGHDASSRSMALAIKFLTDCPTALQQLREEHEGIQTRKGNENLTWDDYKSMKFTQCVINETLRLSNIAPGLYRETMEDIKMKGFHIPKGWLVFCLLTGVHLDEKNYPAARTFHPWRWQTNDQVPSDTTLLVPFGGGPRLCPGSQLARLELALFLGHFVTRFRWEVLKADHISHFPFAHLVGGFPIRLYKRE

| SMILES | expression in tobacco leaves, GC-MS of products (GbLPS) | pathway co-expression in tobacco and yeast, LC-HRMS, NMR of product glucosides (GbCYP720B31) |
| --- | --- | --- |
| CC(C)=CCC/C(C)=C/CC/C(C)=C/CC/C(C)=C/COP(=O)(O)OP(=O)(O)O [geranylgeranyl pyrophosphate] | levopimaradiene synthase (GbLPS) converts GGPP to diterpene hydrocarbon levopimaradiene | – |
| CC(=CC(=O)O)C(CCc1cc(O)c(C(C)C)cc1O)C(C)(C)C (centres unmarked) [ginkgosinoic acid C] | – | we propose that GbCYP720B31 hydroxylates ginkgosinoic acid C at position C20 |
